Biological target: T1, TRAF6-UBC13 interaction (Homo sapiens, UniProt Q9Y4K3)
T1 construct: RING-Zincfinger1 (RZ1) domain (residues 50-159) of TRAF6 wildtype; made in house; host or cells: E. coli BL21 codon plus RIPL
T1 sequence (Q9Y4K3 50-159): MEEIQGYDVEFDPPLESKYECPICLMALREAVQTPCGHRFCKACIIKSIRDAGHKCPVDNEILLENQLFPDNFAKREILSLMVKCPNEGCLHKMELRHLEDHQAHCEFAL
Test: ALPHAScreen TRAF6WTStrepII-Ubc13FH interaction assay
Format: binding
Conditions: inhibition of TRAF6-UBC13 interaction
Excerpt: In order to identify small molecules that specifically target the RZ1 domain of TRAF6 and thereby prevent its binding to Ubc13, the ALPHAScreen technology (PerkinElmer) was chosen to detect TRAF6WTStrepII-Ubc13FH interaction in High-Throughput-Screenings as well as Structure Activity Relationship (SAR) analysis.
For performance of an automated ALPHAScreen assay, all following components were pre-diluted in ALPHAScreen buffer (1×PBS, 0.5% BSA, 0.01% Tween-20). First, the TRAF6 protein (end concentration 100 nM, 30 μL volume) was added to 384-well-opti-plates involving the MultiFlo dispensing system (BioTek) followed by transfer of the compounds via the Sciclone G3 transfer station (PerkinElmer). After addition of Ubc13FH (end concentration 75 nM, 10 μL volume) with the MultiFlo system and incubation for one hour at room temperature, both beads (Strep-Tactin Alpha Donor beads and Nickel-Chelate acceptor beads; end concentrations 4 μg each, 10 μL volume each) were mixed and added using the MultiFlo system in subdued light. Read-out of the plates occurred after another hour of incubation at room temperature. Statistical parameters including the coefficient of variation, Z′ factor and signal window were calculated to determine the quality of the HTS campaign. To evaluate the efficacy of the compounds, ALPHAScreen units of compound-treated samples were referred to DMSO control treated samples. Thereby, the TRAF6D57K mutant served as the control for minimum signal and was included on every plate of the screening. Compounds that inhibited TRAF6WTStrepII-Ubc13FH by more than 25% were considered as actives. After elimination of ALPHAScreen frequent hitter compounds and His-tag frequent hitters (Schorpp, K., I. Rothenaigner, E. Salmina, et al., Identification of Small-Molecule Frequent Hitters from AlphaScreen High-Throughput Screens. J Biomol Screen, 2014. 19(5): p. 715-26), 178 compounds were defined as primary hits and were subsequently tested in five-point serial dilution assays (2.5-40 μM) in TRAF6WTStrepII-Ubc13FH ALPHAScreen experiments. Only compounds with dose-dependent effects on TRAF6WTStrepII-Ubc13FH (n=27) were taken for further research. For analog testing, all compounds were analyzed in ten-point titration (0.2-100 μM) in TRAF6WTStrepII-Ubc13FH ALPHAScreen experiments. In parallel, the compounds were tested in the ALPHAScreen TruHits Kit (PerkinElmer) to rule out unspecific interference with the ALPHAScreen technology.

Row | IC50 | Compound
1 | ≤ 3 µM | Cc1nn(-c2ccc3nnc(C)n3n2)c(C)c1CCC(=O)N1CCN(c2ccccc2)CC1 [Compound 1, 3-(3,5-dimethyl-1-(3-methyl-[1,2,4]triazolo[4,3-b]pyridazin-6-yl)-1H-pyrazol-4-yl)-1-(4-phenylpiperazin-1-yl)propan-1-one]
2 | ≤ 3 µM | Cc1nn(-c2ccc3nnc(C)n3n2)c(C)c1CCC(=O)N1CCN(c2ccccn2)CC1 [Compound 2, 3-(3,5-dimethyl-1-(3-methyl-[1,2,4]triazolo[4,3-b]pyridazin-6-yl)-1H-pyrazol-4-yl)-1-(4-(pyridin-2-yl)piperazin-1-yl)propan-1-one]
3 | ≤ 3 µM | Cc1nn(-c2ccc3nnc(C)n3n2)c(C)c1CCC(=O)N1CCN(c2ccc(F)cc2)CC1 [Compound 4, 3-(3,5-dimethyl-1-(3-methyl-[1,2,4]triazolo[4,3-b]pyridazin-6-yl)-1H-pyrazol-4-yl)-1-(4-(4-fluorophenyl)piperazin-1-yl)propan-1-one]
4 | ≤ 10 µM | Cc1nn(-c2ccc3nncn3n2)c(C)c1CCC(=O)N1CCN(c2ccc(F)cc2)CC1 [Compound 5, 3-(1-([1,2,4]triazolo[4,3-b]pyridazin-6-yl)-3,5-dimethyl-1H-pyrazol-4-yl)-1-(4-(4-fluorophenyl)piperazin-1-yl)propan-1-one]
5 | ≤ 10 µM | Cc1nn(-c2ccc3nnc(C)n3n2)c(C)c1CCC(=O)N1CCCC1 [Compound 6, 3-(3,5-dimethyl-1-(3-methyl-[1,2,4]triazolo[4,3-b]pyridazin-6-yl)-1H-pyrazol-4-yl)-1-(pyrrolidin-1-yl)propan-1-one]
6 | ≤ 10 µM | COc1ccc(N2CCN(C(=O)CCc3c(C)nn(-c4ccc5nnc(C)n5n4)c3C)CC2)cc1 [Compound 7, 3-(3,5-dimethyl-1-(3-methyl-[1,2,4]triazolo[4,3-b]pyridazin-6-yl)-1H-pyrazol-4-yl)-1-(4-(4-methoxyphenyl)piperazin-1-yl)propan-1-one]
7 | ≤ 10 µM | COc1cccc(N2CCN(C(=O)CCc3c(C)nn(-c4ccc5nncn5n4)c3C)CC2)c1 [Compound 8, 3-(1-([1,2,4]triazolo[4,3-b]pyridazin-6-yl)-3,5-dimethyl-1H-pyrazol-4-yl)-1-(4-(3-methoxyphenyl)piperazin-1-yl)propan-1-one]
8 | ≤ 10 µM | COc1ccc(N2CCN(C(=O)CCc3c(C)nn(-c4ccc5nncn5n4)c3C)CC2)cc1 [Compound 9, 3-(1-([1,2,4]triazolo[4,3-b]pyridazin-6-yl)-3,5-dimethyl-1H-pyrazol-4-yl)-1-(4-(4-methoxyphenyl)piperazin-1-yl)propan-1-one]
9 | ≤ 10 µM | Cc1nn(-c2ccc3nncn3n2)c(C)c1CCC(=O)N1CCN(c2ccccc2)CC1 [Compound 10, 3-(1-([1,2,4]triazolo[4,3-b]pyridazin-6-yl)-3,5-dimethyl-1H-pyrazol-4-yl)-1-(4-phenylpiperazin-1-yl)propan-1-one]
10 | ≤ 10 µM | Cc1nn(-c2ccc3nnc(C)n3n2)c(C)c1CCC(=O)N1CCN(Cc2cccc(Cl)c2)CC1 [Compound 11, 1-(4-(3-chlorobenzyl)piperazin-1-yl)-3-(3,5-dimethyl-1-(3-methyl-[1,2,4]triazolo[4,3-b]pyridazin-6-yl)-1H-pyrazol-4-yl)propan-1-one]
11 | ≤ 10 µM | Cc1nn(-c2ccc3nncn3n2)c(C)c1CCC(=O)N1CCN(c2ccccn2)CC1 [Compound 12, 3-(1-([1,2,4]triazolo[4,3-b]pyridazin-6-yl)-3,5-dimethyl-1H-pyrazol-4-yl)-1-(4-(pyridin-2-yl)piperazin-1-yl)propan-1-one]
12 | ≤ 10 µM | Cc1ccc(CNC(=O)CCc2c(C)nn(-c3ccc4nnc(C)n4n3)c2C)o1 [Compound 13, 3-(3,5-dimethyl-1-(3-methyl-[1,2,4]triazolo[4,3-b]pyridazin-6-yl)-1H-pyrazol-4-yl)-N-((5-methylfuran-2-yl)methyl)propanamide]
13 | ≤ 30 µM | Cc1nn(-c2ccc3nnc(C)n3n2)c(C)c1CCC(=O)N1CCN(c2ccccc2F)CC1 [Compound 14, 3-(3,5-dimethyl-1-(3-methyl-[1,2,4]triazolo[4,3-b]pyridazin-6-yl)-1H-pyrazol-4-yl)-1-(4-(2-fluorophenyl)piperazin-1-yl)propan-1-one]
